Results reported in ChEMBL document CHEMBL1201862, “PubChem BioAssay data set” (2004).
Activity calls are given as the source filed them.

Tests used:
[1] = biological target: Beta-galactosidase (Escherichia coli, UniProt Q8VNN2); experiment: PubChem AID 485352; format: functional
[2] = biological target: T1, Type-1 angiotensin II receptor (Homo sapiens, UniProt P30556); experiment: AT1 receptor antagonists, dose response, selectivity assay for APJ receptor antagonist project, cell-based, uHTS hits (AID 463214); format: functional;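 further: antagonist potency against angiotensin II stimulated AT1 response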
T1 sequence (P30556 whole entry): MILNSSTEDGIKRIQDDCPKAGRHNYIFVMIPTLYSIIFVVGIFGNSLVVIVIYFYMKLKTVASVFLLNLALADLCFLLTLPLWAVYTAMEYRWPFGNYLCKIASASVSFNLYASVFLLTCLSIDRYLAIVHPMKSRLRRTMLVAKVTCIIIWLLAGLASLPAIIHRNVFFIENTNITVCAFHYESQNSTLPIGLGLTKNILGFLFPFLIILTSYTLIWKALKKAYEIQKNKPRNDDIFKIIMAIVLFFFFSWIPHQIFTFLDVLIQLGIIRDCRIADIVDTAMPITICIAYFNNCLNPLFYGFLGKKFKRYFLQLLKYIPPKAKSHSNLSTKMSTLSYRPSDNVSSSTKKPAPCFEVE

[3] = biological target: Cytochrome P450 2C9 (Homo sapiens, UniProt P11712)
Sequence of Cytochrome P450 2C9 (P11712 whole entry, the tested form may be a part): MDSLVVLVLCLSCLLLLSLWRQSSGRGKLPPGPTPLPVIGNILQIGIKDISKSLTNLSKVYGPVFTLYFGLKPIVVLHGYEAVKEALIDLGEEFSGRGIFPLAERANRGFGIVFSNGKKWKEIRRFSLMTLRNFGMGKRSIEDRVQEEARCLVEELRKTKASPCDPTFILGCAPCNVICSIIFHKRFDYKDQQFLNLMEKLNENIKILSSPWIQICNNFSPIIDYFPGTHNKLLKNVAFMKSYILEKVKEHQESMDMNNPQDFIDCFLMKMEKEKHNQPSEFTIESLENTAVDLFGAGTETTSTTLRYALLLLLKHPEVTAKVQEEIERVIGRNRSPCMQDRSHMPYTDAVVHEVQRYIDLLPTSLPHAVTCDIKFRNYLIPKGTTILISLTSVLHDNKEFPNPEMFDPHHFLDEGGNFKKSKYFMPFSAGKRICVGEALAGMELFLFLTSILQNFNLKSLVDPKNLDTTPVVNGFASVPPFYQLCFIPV

[4] = CEM21 lymphoblast cell cytotoxicity, dose response, cytotoxicity control for viral fusion inhibitor project, CellTiter-Glo luminescence, cherry-picked (AID 652042); format: functional, cell-based;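 further: potency for signal decrease meaning cytotoxicity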
[5] = ZM109 Env clade C HIV-1 fusion inhibitors, dose response, HeLa effector, CEM target cells, luciferase, cherry-pick (AID 652058); format: functional, cell-based
[6] = off-target signal loss in HeLa-CEM21 co-culture – HeLa F-luc CTL cells, cherry-picked, counter-screen for HIV-1 Env fusion inhibitor project, dose response (AID 652040); format: functional, cell-based;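 further: potency for signal decrease marking cytotoxic or nonspecific inhibition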
[7] = inhibitors of HIV Env-driven cell fusion, dose response, cherry-pick (AID 652057); format: functional, cell-based
[8] = inhibitors of clade B AD8 Env fusion, dose response, cell-based, cherry-pick (AID 652062); format: functional;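 further: luciferase signal from cell-cell fusion driven by HIV-1 clade B AD8 Env; potency is for inhibitors of fusion seen as a drop in luminescence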
[9] = system: HEK293; experiment: inhibitors of LMP1-driven NF-kB reporter, dose response, cell-based, HEK293, luciferase, cherry-pick (AID 588343); format: functional; conditions: Homo sapiens
[10] = system: Vero; experiment: Vero cell cytotoxicity, cytotoxicity control for flavivirus capping enzyme inhibitors (AID 588742); format: functional; conditions: Chlorocebus sabaeus
[11] = biological target: Genome polyprotein (dengue virus type 2, UniProt P29990); experiment: Dengue-2 NS5 methyltransferase inhibitors, primary screen, biochemical, confirmation dose response (AID 588689); format: functional
Sequence of Genome polyprotein (P29990 2492-3391 limits assumed): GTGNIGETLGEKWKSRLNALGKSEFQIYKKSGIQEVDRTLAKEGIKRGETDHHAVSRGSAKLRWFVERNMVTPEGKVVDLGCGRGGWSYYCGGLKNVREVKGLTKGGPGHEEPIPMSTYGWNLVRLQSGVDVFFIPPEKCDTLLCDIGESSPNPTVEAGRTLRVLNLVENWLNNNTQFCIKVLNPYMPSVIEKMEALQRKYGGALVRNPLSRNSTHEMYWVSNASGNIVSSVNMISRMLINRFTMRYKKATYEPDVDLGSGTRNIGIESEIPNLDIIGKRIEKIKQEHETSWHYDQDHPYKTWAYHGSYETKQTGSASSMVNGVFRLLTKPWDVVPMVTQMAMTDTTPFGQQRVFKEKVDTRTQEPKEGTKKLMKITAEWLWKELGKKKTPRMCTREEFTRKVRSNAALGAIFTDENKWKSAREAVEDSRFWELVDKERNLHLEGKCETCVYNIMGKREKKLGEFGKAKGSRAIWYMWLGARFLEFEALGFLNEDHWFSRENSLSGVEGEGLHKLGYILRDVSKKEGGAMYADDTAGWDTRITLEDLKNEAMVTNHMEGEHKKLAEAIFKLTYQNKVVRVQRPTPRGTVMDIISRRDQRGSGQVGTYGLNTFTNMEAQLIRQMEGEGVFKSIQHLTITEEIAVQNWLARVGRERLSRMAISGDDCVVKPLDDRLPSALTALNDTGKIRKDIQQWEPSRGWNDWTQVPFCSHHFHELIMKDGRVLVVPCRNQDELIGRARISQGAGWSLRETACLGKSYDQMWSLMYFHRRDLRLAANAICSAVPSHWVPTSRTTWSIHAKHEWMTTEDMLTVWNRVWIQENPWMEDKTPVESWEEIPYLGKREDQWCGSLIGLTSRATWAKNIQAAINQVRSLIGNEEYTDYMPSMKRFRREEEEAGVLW

[12] = biological target: NAD-dependent protein deacylase sirtuin-5, mitochondrial (Homo sapiens, UniProt Q9NXA8); experiment: SIRT5 desuccinylase inhibitors, dose response, biochemical, fluorescence imaging, cherry-pick, set 5 (AID 720591);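 further: desuccinylation of succinyl peptide AMC substrate read as fluorescence after trypsin release; potency of inhibitors that lower fluorescence and may act on trypsin instead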
Sequence of NAD-dependent protein deacylase sirtuin-5, mitochondrial (Q9NXA8 whole entry): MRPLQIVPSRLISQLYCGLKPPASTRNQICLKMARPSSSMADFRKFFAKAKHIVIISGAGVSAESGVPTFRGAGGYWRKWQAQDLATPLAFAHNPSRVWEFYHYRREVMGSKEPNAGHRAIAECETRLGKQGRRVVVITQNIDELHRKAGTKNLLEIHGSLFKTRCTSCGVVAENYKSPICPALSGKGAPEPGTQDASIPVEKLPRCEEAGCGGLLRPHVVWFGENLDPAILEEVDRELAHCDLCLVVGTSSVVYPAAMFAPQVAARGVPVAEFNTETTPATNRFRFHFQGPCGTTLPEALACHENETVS

[13] = biological target: T2, Corticotropin-releasing factor receptor 2/Corticotropin-releasing factor-binding protein (Homo sapiens, UniProt P24387+Q13324); experiment: Dose Response confirmation of uHTS hits for small molecule antagonists of the CRF-binding protein and CRF-R2 receptor complex.; format: functional; conditions: read-out: IC50_Mean
T2 sequence (Q13324 whole entry): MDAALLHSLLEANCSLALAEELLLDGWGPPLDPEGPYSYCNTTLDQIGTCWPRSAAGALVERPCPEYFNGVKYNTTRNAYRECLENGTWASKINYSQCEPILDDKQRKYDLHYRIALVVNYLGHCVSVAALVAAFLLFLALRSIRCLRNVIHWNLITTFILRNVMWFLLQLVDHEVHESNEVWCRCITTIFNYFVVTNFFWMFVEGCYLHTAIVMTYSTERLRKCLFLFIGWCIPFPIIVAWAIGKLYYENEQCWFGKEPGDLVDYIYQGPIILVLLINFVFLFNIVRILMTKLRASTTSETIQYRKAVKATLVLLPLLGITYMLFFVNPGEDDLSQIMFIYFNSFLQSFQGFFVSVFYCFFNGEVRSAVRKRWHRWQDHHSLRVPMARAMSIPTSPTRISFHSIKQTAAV
T2 sequence (P24387 whole entry): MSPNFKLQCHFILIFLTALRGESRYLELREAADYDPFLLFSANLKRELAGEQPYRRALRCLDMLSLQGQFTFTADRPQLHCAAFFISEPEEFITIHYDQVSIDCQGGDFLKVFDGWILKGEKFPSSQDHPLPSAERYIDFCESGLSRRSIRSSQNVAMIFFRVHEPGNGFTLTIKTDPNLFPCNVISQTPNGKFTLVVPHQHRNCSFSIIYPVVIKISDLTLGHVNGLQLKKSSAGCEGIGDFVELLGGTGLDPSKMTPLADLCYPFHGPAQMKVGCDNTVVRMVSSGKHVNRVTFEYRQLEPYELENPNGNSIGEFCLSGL

[14] = biological target: T2, Corticotropin-releasing factor receptor 2/Corticotropin-releasing factor-binding protein; experiment: activators of CRF receptor 2 with binding protein – uHTS hits, confirmation (AID 602473); format: functional; conditions: read-out: EC50_Mean
[15] = CRF-BP/CRF-R2 complex antagonists, dose response, cell-based, uHTS hits, 384-well (AID 651639); format: functional, Homo sapiens; conditions: read-out: IC50_Mean
[16] = biological target: T3, Cytochrome P450 1A2 (Homo sapiens, UniProt P05177);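 further: PubChem cytochrome P450 panel assay, CYP1A2 panel member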
T3 sequence (P05177 whole entry): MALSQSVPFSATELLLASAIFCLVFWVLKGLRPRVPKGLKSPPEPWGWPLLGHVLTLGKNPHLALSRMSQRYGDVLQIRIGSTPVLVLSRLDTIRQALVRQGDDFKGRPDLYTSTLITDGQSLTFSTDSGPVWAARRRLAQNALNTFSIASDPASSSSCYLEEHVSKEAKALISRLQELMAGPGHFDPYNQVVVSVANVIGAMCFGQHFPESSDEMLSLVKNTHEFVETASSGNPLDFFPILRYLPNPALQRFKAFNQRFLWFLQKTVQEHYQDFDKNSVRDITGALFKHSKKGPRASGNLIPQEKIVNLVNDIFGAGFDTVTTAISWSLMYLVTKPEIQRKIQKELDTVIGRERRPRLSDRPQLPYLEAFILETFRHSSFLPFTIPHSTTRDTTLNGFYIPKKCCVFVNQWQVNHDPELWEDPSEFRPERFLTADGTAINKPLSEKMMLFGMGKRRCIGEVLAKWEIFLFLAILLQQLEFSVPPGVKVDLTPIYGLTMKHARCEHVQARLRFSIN

[17] = system: BJ; experiment: cytotoxicity toward BJ-TERT fibroblasts, dose response, cell-based, RAS-independent, luminescence (AID 1933); format: functional; conditions: Homo sapiens
[18] = system: BJ; experiment: cells; format: functional, cell-based; conditions: Homo sapiens
[19] = cytotoxicity toward DRD oncogenic fibroblasts, dose response, cell-based, non-viral oncogenic, luminescence (AID 1934); format: functional; conditions: Homo sapiens
[20] = system: BJ; experiment: cytotoxicity toward BJ-TERT-LT-ST fibroblasts, dose response, cell-based, RAS-independent, luminescence (AID 1935); format: functional; conditions: Homo sapiens;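 further: BJ fibroblasts immortalized with TERT plus LT and ST oncogenes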

Sequence of Beta-galactosidase (Q8VNN2 whole entry): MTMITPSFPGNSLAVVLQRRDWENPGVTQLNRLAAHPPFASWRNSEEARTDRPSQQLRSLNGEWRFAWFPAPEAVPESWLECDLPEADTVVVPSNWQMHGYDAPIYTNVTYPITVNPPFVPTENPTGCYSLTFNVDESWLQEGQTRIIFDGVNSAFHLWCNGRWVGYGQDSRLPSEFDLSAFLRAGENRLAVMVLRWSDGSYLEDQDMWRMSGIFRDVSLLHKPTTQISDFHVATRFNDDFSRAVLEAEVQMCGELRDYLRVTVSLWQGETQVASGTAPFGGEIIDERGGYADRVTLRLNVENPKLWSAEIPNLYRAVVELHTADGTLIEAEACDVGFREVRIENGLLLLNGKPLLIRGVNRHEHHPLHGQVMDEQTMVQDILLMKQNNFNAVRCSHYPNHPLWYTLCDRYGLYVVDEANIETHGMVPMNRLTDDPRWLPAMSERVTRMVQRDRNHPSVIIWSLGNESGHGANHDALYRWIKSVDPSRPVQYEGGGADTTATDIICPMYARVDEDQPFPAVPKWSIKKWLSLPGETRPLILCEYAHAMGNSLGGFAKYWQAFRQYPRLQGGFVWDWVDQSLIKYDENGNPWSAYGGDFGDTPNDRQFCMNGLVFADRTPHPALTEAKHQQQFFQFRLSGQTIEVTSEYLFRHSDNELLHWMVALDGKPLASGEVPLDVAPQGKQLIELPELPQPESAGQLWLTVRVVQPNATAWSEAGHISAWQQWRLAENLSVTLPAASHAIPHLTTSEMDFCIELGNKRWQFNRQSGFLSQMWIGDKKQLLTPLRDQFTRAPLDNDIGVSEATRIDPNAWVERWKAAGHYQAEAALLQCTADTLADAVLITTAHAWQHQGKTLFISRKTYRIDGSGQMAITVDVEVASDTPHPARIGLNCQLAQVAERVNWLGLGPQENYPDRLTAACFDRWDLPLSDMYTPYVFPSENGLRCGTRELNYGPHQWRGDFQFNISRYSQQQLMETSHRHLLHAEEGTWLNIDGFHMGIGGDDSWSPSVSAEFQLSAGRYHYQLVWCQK

With `CCCCNC(=S)NNC(=O)CCn1nc(C)c(Br)c1C` the EC50 [1] was > 40 µM (inactive), the IC50 [2] was > 40 µM (not active) and the AC50 [3] was “inconclusive”.

For `COc1cc(OC)nc(Nc2nc(C(N)COCc3ccccc3)cs2)n1` (stereo not drawn), the AC50 [4] was 28.3 µM (active), the AC50 [5] was 4.17 µM (active) and the AC50 [6] was 4.69 µM (active). The AC50 [7] was 3.75 µM (active) and the AC50 [8] was 5.29 µM (active).

With `CN(C)c1ccnc2sc(C(N)=O)c(N)c12` the AC50 [9] was 3.08 µM (active).

With `O=C1c2ccccc2C(=O)c2cc(N3CCCCC3)ccc21` the AC50 [9] was 1.3 µM (active).

In the case of `CCOC(=O)c1sc(N2N=C(C)/C(=C\c3ccc(OCC(=O)OC)cc3)C2=O)nc1C`, the CC50 [10] was 39.2 µM (active) and the IC50 [11] was 90.7 µM (active).

For `COc1ccccc1CNC(=O)C1CCC(CNS(=O)(=O)c2ccc(F)cc2)CC1` (stereo not drawn), the AC50 [12] was > 30 µM (inactive).

With `Cc1nn(Cc2ccccc2)c(Cl)c1C(=O)NC1CCCc2ccccc21` (stereo not drawn) the IC50 [13] was 6.77 µM (active), the EC50 [14] was > 53 µM (inactive) and the IC50 [15] was 11.9 µM (active).

For `CCCCN(C)C(=O)c1coc(=O)c2ccccc12`, the AC50 [3] was “inconclusive” and the AC50 [16] was 2.51 µM (inconclusive).

For `CC(C)OC(=O)c1ccccc1C(=O)c1ccc(N)c([N+](=O)[O-])c1`, the EC50 [17] was > 150 µM (not active), the IC50 [13] was 38.6 µM (active) and the EC50 [18] was > 150 µM (not active). The EC50 [19] was > 150 µM (not active), the EC50 [14] was > 53 µM (inactive) and the IC50 [15] was > 20 µM (inactive). For the same molecule, the EC50 [20] was > 150 µM (not active).

With `Cc1ccc(NC(=O)CSc2nnc(Cn3cnc4ccccc43)o2)c(C)c1` the IC50 [13] was 5.69 µM (active), the EC50 [14] was > 53 µM (inactive) and the IC50 [15] was > 20 µM (inactive).
